Laboratory results published in BigSolDB 2.1.

SMILES: C[C@@H]1O[C@@H](OC[C@H]2O[C@@H](Oc3c(-c4ccc(O)c(O)c4)oc4cc(O)cc(O)c4c3=O)[C@H](O)[C@@H](O)[C@@H]2O)[C@H](O)[C@H](O)[C@H]1O
- solubility (mole fraction) (in ethanol, 273.2 K): 0.00348
- solubility (mole fraction) (in ethanol, 283.2 K): 0.00372
- solubility (mole fraction) (in ethanol, 293.2 K): 0.00427
- solubility (mole fraction) (in ethanol, 303.2 K): 0.00515
- solubility (mole fraction) (in ethanol, 313.2 K): 0.00592
- solubility (mole fraction) (in ethanol, 323.2 K): 0.00653
- solubility (mole fraction) (in water, 273.2 K): 2.97e-06
- solubility (mole fraction) (in water, 283.2 K): 5.29e-06
- solubility (mole fraction) (in water, 293.2 K): 5.87e-06
- solubility (mole fraction) (in water, 303.2 K): 8.22e-06
- solubility (mole fraction) (in water, 313.2 K): 1.02e-05
- solubility (mole fraction) (in water, 323.2 K): 1.42e-05
